What was measured:
A549 = test: cells; details: Homo sapiens, A549, 48 h, read-out: INH
[1] = molecular target: T1, Ribosyldihydronicotinamide dehydrogenase [quinone] (Homo sapiens, UniProt P16083)
T1 sequence (P16083 whole entry): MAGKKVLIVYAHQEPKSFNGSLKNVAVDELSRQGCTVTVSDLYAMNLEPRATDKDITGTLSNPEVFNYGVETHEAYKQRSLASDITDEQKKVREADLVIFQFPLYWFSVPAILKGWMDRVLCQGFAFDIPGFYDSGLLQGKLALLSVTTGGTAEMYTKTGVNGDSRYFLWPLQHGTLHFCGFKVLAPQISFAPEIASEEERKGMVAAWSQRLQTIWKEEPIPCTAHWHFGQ
Description: Inhibition of recombinant human NQO2 using DCPIP and EPR as substrate measured over 1 min in presence of FAD by spectrophotometric analysis

IC50 [1] [nM] | Compound | inhibition at 10 µM (A549) [%]
69 | COc1cc(-c2ccc3cc(N)ccc3c2)cc(OC)c1OC | 24.3
 | COc1cc(/C=C/c2ccc(N)cc2)cc(OC)c1OC | 14.7
 | Oc1ccc(/C=C/c2cc(O)cc(O)c2)cc1 [RESVERATROL] | 15.4

— ChEMBL document CHEMBL6115006, “Discovery of potent quinone oxidoreductase 2 inhibitors to overcome TRAIL resistance of non-small cell lung cancer” (Eur J Med Chem, 2025)
